According to US20150139979A1, “METHODS OF TREATING A DISEASE OR DISORDER ASSOCIATED WITH BRUTON'S TYROSINE KINASE” (Celgene Avilomics Research, Inc., priority 2013, published 2015):
Like-named read-outs stand apart in the source and are kept apart here.

Columns and labels:
Environmental stability = format: physicochemical
Solubility = format: physicochemical
[1] = system: B-cell non-Hodgkin lymphoma; assay: Single agent clinical study in B-cell non-Hodgkin lymphoma; format: in vivo
Method: As of Sep. […] See U.S. patent application Ser. No. 13/661,678 and International Patent Application No. PCT/US2012/062133, both filed on Oct. 26, 2012, each of which is hereby incorporated by reference in its entirety. […] Studies are ongoing and additional dose levels currently being investigated include: 1000 mg QD, 1250 mg QD, 375 mg BID and 500 mg BID.

Structure (SMILES) | environmental instabilities (heat, acid, base) (Environmental stability) | solubility (Solubility; ethanol, organic solvent or mixture, read-out: solubility in ethanol) [µg/mL] | solubility (Solubility; water, read-out: solubility in water) [µg/mL] | evaluable B-NHL patients with decreased lymph node size ([1]; monotherapy) | patients with B-cell non-Hodgkin lymphoma who experienced stable disease ([1]; monotherapy, as of Sep. 11, 2012) | maximum tolerated dose (MTD) ([1]; single agent, up to 750 mg PO QD)
C=CC(=O)Nc1cccc(Nc2nc(Nc3ccc(OCCOC)cc3)ncc2F)c1.O=S(=O)(O)c1ccccc1 [Compound 1 besylate, N-(3-(5-fluoro-2-(4-(2-methoxyethoxyl)phenylamino)pyrimidin-4-ylamino)phenyl)acrylamide besylate] | no environmental instabilities | ~10000 | ~160 | Six of eleven | 9 out of 17 | –
C=CC(=O)Nc1cccc(Nc2nc(Nc3ccc(OCCOC)cc3)ncc2F)c1 [Compound 1, N-(3-(5-fluoro-2-(4-(2-methoxyethoxyl)phenylamino)pyrimidin-4-ylamino)phenyl)acrylamide] | – | – | – | – | – | has not yet been reached
